According to patent US20060046999A1, “Monocyclic aroylpyridinones as antiinflammatory agents” (priority 2002, published 2006):

The compounds below were run against p38 map kinase (Homo sapiens, UniProt Q16539) (assay: p38 map kinase SPA [33P] assay). Conditions: 10 μM ATP, 2.5 μM biotinylated MBP substrate, 90 min at 30° C.
Assay type: biochemical
Source text: The assay makes use of the serine/threonine protein kinase SPA [^33P]-assay kit from Amersham Pharmacia Biotech. The assay is a homogeneous technique using SPA technology for the quantification of serine threonine kinase activity.
It is based on the p38 map kinase catalysed transfer of the γ-phosphate group of the [γ-^33P]-ATP to the substrate, biotinylated myelin basic protein (MBP). The resulting [^33P]-labelled biotinylated product is trapped on a PVT SPA bead containing scintillant which has been surface coated with streptavidin.
The beads are allowed to settle to eliminate high background, and therefore only ^33P_labelled product attached to the SPA bead is detected.
The assay is carried out in the presence and absence of test compounds to determine their effect on p38 map kinase activity.
A Test Protocol is as Follows:
• 1. SPA assay kit (Amersham). Components: • Assay buffer (store frozen) • Stop solution (store frozen) • Streptavidin coated SPA beads—reconstitute with 5 ml of PBS (50 mg/ml) (store in fridge) • 2. p38 map kinase enzyme (500 μg/ml)—aliquoted in 1.5 ml • dilute 1:10 to 50 μg/ml • 1 plate: 110 μl (stock 500 μg/ml)+990 μl PBS. • 3. Assay reagent: • for 1 plate: 504 μl assay buffer [500 mM MOPS pH 7.2, 10 μM ATP, 50 mM MgCl2, 25 μM biotinylated myelin basic protein (MBP)] • 2513.4 μl water • 1.1 μl [^33P]-ATP (10 μCi/μl) (on activity date/adjust for activity date) • 4.534 μl X10-2M ATP in water • 4. Stop solution: • for 1 plate: 265.92 μl streptavidin coated beads (50 mg/ml) • 1651.68 μl stop buffer (500 μM ATP, 50 mM EDTA, 1% Triton X-100) • 7084.32 μl PBS. • 1. Add 10 μl compound dilutions (5× final conc.) to test wells • 2. Add 10 μl 12.5% DMSO to control/blank wells • 3. Add 10 μl enzyme (50 μg/ml)—final conc. 500 ng/well • 4. Add 10 μl PBS to blank wells • 5. Add 30 μl of assay reagent to each well (final conc. 10 μM ATP, 2.5 μM substrate) • 6. Mix well on plate shaker • 7. Incubate 90 min (30° C.) • 8. Add 75 μl of stop solution to each well (final conc. 55 μM ATP) • 9. Spin plate: 3 min/1600 rpm/20° C. (alternatively leave to settle overnight) • 10. Read in Microbeta, Protocol SPA paralux 3.

Chain of p38 map kinase (Q16539 whole entry): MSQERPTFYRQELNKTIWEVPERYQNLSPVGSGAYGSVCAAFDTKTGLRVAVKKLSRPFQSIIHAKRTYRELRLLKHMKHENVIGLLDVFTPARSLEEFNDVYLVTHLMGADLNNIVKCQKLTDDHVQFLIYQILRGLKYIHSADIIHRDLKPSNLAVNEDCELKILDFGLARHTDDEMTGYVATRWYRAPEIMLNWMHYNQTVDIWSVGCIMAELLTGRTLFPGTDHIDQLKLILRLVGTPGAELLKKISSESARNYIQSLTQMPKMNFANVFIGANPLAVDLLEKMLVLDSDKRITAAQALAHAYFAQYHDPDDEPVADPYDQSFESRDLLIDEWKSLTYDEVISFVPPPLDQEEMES

Row | SMILES | IC50
1 | O=C(c1ccccc1)c1ccc(=O)n(Cc2ccccc2)c1NCc1ccccc1 [Example 2, 5-Benzoyl-1-benzyl-6-(benzylamino)-2(1H)-pyridinone] | 0.325 µM
2 | CC(C)C(Nc1c(C(=O)c2ccccc2)ccc(=O)n1C)C(C)C [Example 14, 5-Benzoyl-6-[(1-isopropyl-2-methylpropyl)amino]-1-methyl-2(1H)-pyridinone] | 1.88 µM
3 | COc1ccc(-n2c(N)c(C(=O)c3ccc(F)cc3)ccc2=O)c(OC)c1 [Example 20, 6-Amino-1-(2,4-dimethoxyphenyl)-5-(4-fluorobenzoyl)-2(1H)-pyridinone] | 0.127 µM
4 | O=C(c1ccccc1)c1ccc(=O)[nH]c1NC1CCCCC1 [Example 5, 5-Benzoyl-6-(cyclohexylamino)-2(1H)-pyridinone] | 1.29 µM
5 | O=C(c1ccccc1)c1ccc(=O)[nH]c1NCC1CCCCC1 [Example 15, 5-Benzoyl-6-[(cyclohexylmethyl)amino]-2(1H)-pyridinone] | 4.05 µM

Now from value to compound:

Row | IC50 | SMILES
6 | 0.209 µM | Cc1ccc(-n2c(N)c(C(=O)c3ccccc3)ccc2=O)cc1 [Example 9, 6-amino-5-benzoyl-1-(4-methylphenyl)-2(1H)-pyridinone]
7 | 0.299 µM | COc1ccc(-n2c(N)c(C(=O)c3ccccc3)ccc2=O)cc1 [Example 4, 6-Amino-5-benzoyl-1-(4-methoxyphenyl)-2(1H)-pyridinone]
8 | 0.202 µM | Nc1c(C(=O)c2ccccc2)ccc(=O)n1-c1ccccc1 [Example 6, 6-Amino-5-benzoyl-1-phenyl-2(1H)-pyridinone]
